# Measured values from patent publication US20250129062A1, “AMORPHOUS SUBSTANCES, CRYSTALS, PHARMACEUTICAL COMPOSITIONS, PREPARATION METHODS AND USES OF THIOHYDANTOIN COMPOUND OR PHARMACEUTICALLY ACCEPTABLE SALT THEREOF” (SUZHOU KINTOR PHARMACEUTICALS, INC., priority 2021, published 2025).
# Where “and” joins values, the source holds several entries; their conditions need not be identical. Equal values may be shown once. Read-outs that look alike come from different tables or passages of the source.
# Assays:
# [1] = Solubility of amorphous substance in solvent systems (supersaturated solution, oscillated 24 h at room temperature, HPLC); assay type: physicochemical; details: dehydrated alcohol 50%: water 50% (w/w), aqueous with cosolvent or surfactant or cyclodextrin, thermodynamic from solid, Dehydrated alcohol 50%: water 50% (w/w); read-out: 24 h solubility
# Method: The amorphous substance of the compound of formula I was prepared into supersaturated solutions with different solvents, and oscillated under a room temperature condition (a constant temperature). After oscillating for 24 h, sampling was performed, and the content of the sample was detected by HPLC under condition 1.
# Condition 1: • Chromatographic column: C18 (150 mm×4.6 mm×3.5 μm); • Mobile phase: binary mobile phase system, mobile phase A was 0.1% formic acid in water, mobile phase B was acetonitrile; • Elution time: 68 min; • Elution mode: gradient elution (in the gradient elution process, mobile phase A had the maximum volume percentage of 95% and the minimum volume percentage of 10%); • Detection wavelength: 270 nm.
# [2] = Distribution of compound in sebaceous glands and blood of golden hamsters after single skin application; assay type: in vivo; details: for Concentration in sebaceous glands / concentration at 8 h: 8 h
# Method: 6 male golden hamsters were selected for the experiment, and randomly divided evenly into 2 groups, with three golden hamsters per group. All animals were fasted overnight before administration, and were administered via a route of single application. Sampling was performed at specific time points after administration. Specific information on animal grouping, administration, sampling, etc. were detailed in Table 6.
# The amorphous substance of the compound of formula I was weighed and placed in a 50 mL centrifugal tube. A mixed solvent (consisting of 75% v/v ethanol, 15% v/v glyceryl tri (2-ethylhexanoate) and 10% v/v glycerin) was added. After vortexing, heating was performed at 60° C. until the amorphous substance of the compound of formula I was completely dissolved. The amorphous substances of the compound of formula I in the two groups were prepared at 30 mg/mL and 100 mg/mL, respectively, and stored at room temperature in the dark.
# After administration, blood was collected into blood collection tubes containing a heparin sodium anticoagulant at corresponding time points. Immediately after collection of whole blood, the blood collection tubes were gently shaken and placed on ice, and then centrifuged (4° C., 4000 rpm, 10 min). The supernatant plasma samples (plasma volume ≥100 μL) were collected, and stored in a refrigerator at about −80° C. The plasma samples were collected for 8 h for analysis.
compound,measurement,setting,value
Cc1ncsc1-c1ccc(CNC(=O)[C@@H]2C[C@@H](O)CN2C(=O)[C@@H](NC(=O)COCCCCOc2ccc(-c3ccc(N4C(=S)N(c5ccc(C#N)c(C(F)(F)F)c5F)C(=O)C4(C)C)cn3)cc2)C(C)(C)C)cc1 [compound of formula I],solubility at 24 h,[1],6440 µg/mL
same,Concentration in sebaceous glands,"[2]; Left sebaceous gland, dose 1.2 mg, individual animals No. 1-3",10900 ng/mL and 20400 ng/mL and 7010 ng/mL
same,Concentration in sebaceous glands,"[2]; Left sebaceous gland, dose 4 mg, individual animals No. 4-6",57100 ng/mL and 15000 ng/mL and 8340 ng/mL
same,Concentration in sebaceous glands,"[2]; Right sebaceous gland, dose 1.2 mg, individual animals No. 1-3",17900 ng/mL and 15700 ng/mL
same,Concentration in sebaceous glands,"[2]; Right sebaceous gland, dose 4 mg, individual animals No. 4-6",19900 ng/mL and 18400 ng/mL
same,distribution between sebaceous glands and blood after skin application,"[2]; golden hamsters, administration via skin application","can enter sebaceous glands, but cannot enter blood"
same,maximum blood drug concentration,"[2]; group 2, dose 4 mg, over sampling time points 0.25, 0.5, 1, 2, 4, 6 and 8 h",10.6 ng/mL
same,Concentration of compound of formula I in plasma,"[2]; male golden hamsters, skin application 4 mg, 2 h, individual animals No. 4, 5, 6",10.6 ng/mL
same,Concentration of compound of formula I in plasma,"[2]; male golden hamsters, skin application 4 mg, 4 h, individual animals No. 4, 5, 6",4.42 ng/mL
same,concentration at 0.5 h,"[2]; male, hamster, plasma, topical, 4 mg, male golden hamsters, skin application 4 mg, 0.5 h, individual animals No. 4, 5, 6, read-out: Concentration of compound of formula I in plasma",< 0 ng/mL
same,concentration at 1 h,"[2]; male, hamster, plasma, topical, 4 mg, male golden hamsters, skin application 4 mg, 1 h, individual animals No. 4, 5, 6, read-out: Concentration of compound of formula I in plasma",< 0 ng/mL
same,concentration at 2 h,"[2]; male, hamster, plasma, topical, 4 mg, male golden hamsters, skin application 4 mg, 2 h, read-out: Concentration of compound of formula I in plasma, Mean",11 ng/mL
same,concentration at 4 h,"[2]; male, hamster, plasma, topical, 4 mg, male golden hamsters, skin application 4 mg, 4 h, read-out: Concentration of compound of formula I in plasma, Mean",4 ng/mL
same,concentration at 8 h,"[2]; male, hamster, right sebaceous gland, topical, 1.2 mg, Right sebaceous gland, dose 1.2 mg, individual animals No. 1-3, read-out: Concentration in sebaceous glands",9170 ng/mL
same,concentration at 8 h,"[2]; male, hamster, right sebaceous gland, topical, 4 mg, Right sebaceous gland, dose 4 mg, individual animals No. 4-6, read-out: Concentration in sebaceous glands",26600 ng/mL
same,concentration at 8 h,"[2]; male, hamster, sebaceous glands (left and right), topical, 1.2 mg, left and right sebaceous glands, dose 1.2 mg, read-out: Concentration mean in sebaceous glands",13500 ng/mL
same,concentration at 8 h,"[2]; male, hamster, sebaceous glands (left and right), topical, 4 mg, left and right sebaceous glands, dose 4 mg, read-out: Concentration mean in sebaceous glands",24200 ng/mL
